Reference: patent US20230174507A1, “IMIDAZOLE 3-OXIDE DERIVATIVE BASED ACSS2 INHIBITORS AND METHODS OF USE THEREOF” (METABOMED LTD., priority 2020, published 2023)

Tests used:
[1] = biological target: T1, human ACSS2 protein (Homo sapiens, UniProt Q9NR19); assay: ACSS2 cell-free activity assay (pyrophosphatase-coupled, Biomol green); details: 10 nM human ACSS2, 90 minutes at 37 C, absorbance at 620 nm; read-out: ACSS2 Biochemical IC50
T1 construct: purchased OriGene Technologies, Inc
Experimental: ACSS2 Cell-Free Activity Assay (Cell-Free IC50)
(§1) The assay is based on a coupling reaction with Pyrophosphatase: ACSS2 is converting ATP+CoA+Acetate=>AMP+pyrophosphate+Acetyl-CoA (Ac-CoA). Pyrophosphatase converts pyrophosphate, a product of the ACSS2 reaction, to phosphate which can be detected by measuring the absorbance at 620 nm after incubation with the Biomol green reagent (Enzo life Science, BML-AK111).
(§2) Cell Free IC50 Determination:
(§3) 10 nM of human ACSS2 protein (OriGene Technologies, Inc) was incubated for 90 minutes at 37 C with various compounds' concentrations in a reaction containing 50 mM Hepes pH 7.5, 10 mM DTT, 90 mM KCl, 0.006% Tween-20, 0.1 mg/ml BSA, 2 mM MgCl2, 10 μM CoA, 5 mM NaAc, 300 μM ATP and 0.5 U/ml Pyrophosphatase (Sigma). At the end of the reaction, Biomol Green was added for 30 minutes at RT and the activity was measured by reading the absorbance at 620 nm. IC50 values were calculated using non-linear regression curve fit with 0% and 100% constrains (CDD Vault, Collaborative Drug Discovery, Inc.).

[2] = biological target: T2, human ACSS1 protein (Homo sapiens, UniProt Q9NUB1); assay: ACSS1 cell-free activity assay (pyrophosphatase-coupled, Biomol green); assay type: biochemical; details: 5 nM human ACSS1, 30 minutes at room temperature, absorbance at 620 nm
T2 construct: purchased MyBioSource
T2 sequence (Q9NUB1 38-689): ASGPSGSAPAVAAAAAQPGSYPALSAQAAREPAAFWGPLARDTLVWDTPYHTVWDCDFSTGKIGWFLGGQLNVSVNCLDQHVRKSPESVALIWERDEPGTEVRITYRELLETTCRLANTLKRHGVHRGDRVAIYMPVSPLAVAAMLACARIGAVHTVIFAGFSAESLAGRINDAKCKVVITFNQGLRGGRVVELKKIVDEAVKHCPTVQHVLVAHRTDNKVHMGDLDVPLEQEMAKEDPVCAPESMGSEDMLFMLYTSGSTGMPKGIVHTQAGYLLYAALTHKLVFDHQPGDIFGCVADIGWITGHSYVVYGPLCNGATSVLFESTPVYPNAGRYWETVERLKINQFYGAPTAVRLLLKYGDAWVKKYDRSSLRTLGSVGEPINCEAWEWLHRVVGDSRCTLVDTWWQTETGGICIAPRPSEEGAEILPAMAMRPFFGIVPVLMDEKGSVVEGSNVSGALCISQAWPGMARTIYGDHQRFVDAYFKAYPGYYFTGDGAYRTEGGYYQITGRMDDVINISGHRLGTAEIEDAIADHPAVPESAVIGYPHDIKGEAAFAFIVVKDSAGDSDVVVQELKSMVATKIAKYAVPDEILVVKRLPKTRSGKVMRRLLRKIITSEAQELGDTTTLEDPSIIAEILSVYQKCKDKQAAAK
Experimental: ACSS1 Cell-Free Activity Assay (Cell-Free IC50)
as §1, with “ACSS1” for “ACSS2”
as §2
as §3, with “5 nM” for “10 nM”, “human ACSS1” for “human ACSS2”, “protein (MyBioSource)” for “protein (OriGene Technologies, Inc)”, “for 30” for “for 90”, “at room temperature” for “at 37 C”, “MgCl2, 15” for “MgCl2, 10”

T1 sequence (Q9NR19 whole entry): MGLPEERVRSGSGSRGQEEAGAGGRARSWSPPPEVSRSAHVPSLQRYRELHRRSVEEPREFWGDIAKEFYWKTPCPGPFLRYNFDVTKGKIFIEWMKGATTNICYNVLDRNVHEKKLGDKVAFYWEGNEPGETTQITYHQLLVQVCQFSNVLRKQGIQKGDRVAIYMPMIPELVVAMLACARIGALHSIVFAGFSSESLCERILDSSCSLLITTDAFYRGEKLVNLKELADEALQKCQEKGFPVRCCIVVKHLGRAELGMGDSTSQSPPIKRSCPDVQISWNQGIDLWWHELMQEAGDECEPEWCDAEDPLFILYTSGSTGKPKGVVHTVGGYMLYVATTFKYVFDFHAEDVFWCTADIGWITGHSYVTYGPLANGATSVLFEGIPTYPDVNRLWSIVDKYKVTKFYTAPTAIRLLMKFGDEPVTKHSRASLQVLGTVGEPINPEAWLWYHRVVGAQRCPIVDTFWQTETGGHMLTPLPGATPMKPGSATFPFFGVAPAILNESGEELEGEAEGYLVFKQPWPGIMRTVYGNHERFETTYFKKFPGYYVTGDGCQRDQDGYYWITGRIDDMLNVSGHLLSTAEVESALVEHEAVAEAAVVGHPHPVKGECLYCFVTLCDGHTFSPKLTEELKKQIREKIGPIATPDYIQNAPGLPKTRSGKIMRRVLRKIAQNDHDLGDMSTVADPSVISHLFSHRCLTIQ

Row | SMILES | IC50 [1] | ACSS1 Biochemical IC50 (nM) [2]
1 | COc1ccc(-c2[nH]c(C)c(C(=O)Nc3cccc(C(=O)N4CCCCC4)c3)[n+]2[O-])cc1-c1c(C)cccc1C [Compound 139, 2-(6-methoxy-2′,6′-dimethyl-[1,1′-biphenyl]-3-yl)-5-methyl-4-((3-(piperidine-1-carbonyl)phenyl)carbamoyl)-1H-imidazole 3-oxide] | > 30 nM | Inactive
2 | COc1ccc(-c2[nH]c(C)c(C(=O)Nc3cccc(C(=O)N4CCCC4)c3)[n+]2[O-])cc1-c1c(C)cccc1C [Compound 138, 2-[3-(2,6-dimethylphenyl)-4-methoxy-phenyl]-5-methyl-3-oxido-N-[3-(pyrrolidine-1-carbonyl)phenyl]-1H-imidazol-3-ium-4-carboxamide] | > 30 nM | Inactive
3 | CCC(F)(F)c1cccc(NC(=O)c2c(C)[nH]c(-c3ccc(OC)c(N4CCOCC4)c3)[n+]2[O-])c1 [Compound 150, 4-((3-(1,1-difluoropropyl)phenyl)carbamoyl)-2-(4-methoxy-3-morpholinophenyl)-5-methyl-1H-imidazole 3-oxide] | 1 to 30 nM | Inactive
4 | Cc1cccc(C)c1-c1cc(-c2c(C)cccc2C)cc(-c2[nH]c(C)c(C(=O)Nc3cccc(C(F)(F)C4CC4)c3)[n+]2[O-])c1 [Compound 132, 4-((3-(cyclopropyldifluoromethyl)phenyl)carbamoyl)-5-methyl-2-(2,2″,6,6″-tetramethyl-[1,1′:3′,1″-terphenyl]-5′-yl)-1H-imidazole 3-oxide] | 1 to 30 nM | Inactive
5 | CCC(F)(F)c1cccc(NC(=O)c2c(C)n(COP(=O)(O)OC(C)(C)C)c(-c3ccc(OC)c(-c4c(C)cccc4C)c3)[n+]2[O-])c1 [Compound 188, 1-(((tert-butoxy(hydroxy)phosphoryl)oxy)methyl)-4-((3-(1,1-difluoropropyl)phenyl)carbamoyl)-2-(6-methoxy-2′,6′-dimethyl-[1,1′-biphenyl]-3-yl)-5-methyl-1H-imidazole 3-oxide] | 1 to 30 nM | Inactive
6 | Cc1cccc(C)c1-c1cc(-c2[nH]c(C)c(C(=O)Nc3cccc(C(F)(F)C4CC4)c3)[n+]2[O-])cc(C(C)C)c1 [Compound 134, 4-((3-(cyclopropyldifluoromethyl)phenyl)carbamoyl)-2-(5-isopropyl-2′,6′-dimethyl-[1,1′-biphenyl]-3-yl)-5-methyl-1H-imidazole 3-oxide] | 1 to 30 nM | Inactive
7 | CCC(F)(F)c1cccc(NC(=O)c2c(C)[nH]c(-c3ccc(OC)c(-c4cccnn4)c3C)[n+]2[O-])c1 [Compound 122, 4-((3-(1,1-difluoropropyl)phenyl)carbamoyl)-2-(4-methoxy-2-methyl-3-(pyridazin-3-yl)phenyl)-5-methyl-1H-imidazole 3-oxide] | > 30 nM | Inactive
8 | C/C=C\c1cc(C)c(-c2cc(-c3[nH]c(C)c(C(=O)Nc4cccc(C(F)(F)CC)c4)[n+]3[O-])ccc2OC)c(C)c1 [Compound 160, (Z)-4-((3-(1,1-difluoropropyl)phenyl)carbamoyl)-2-(6-methoxy-2′,6′-dimethyl-4′-(prop-1-en-1-yl)-[1,1′-biphenyl]-3-yl)-5-methyl-1H-imidazole 3-oxide] | 1 to 30 nM | Inactive
9 | CCC(F)(F)c1cccc(NC(=O)c2c(C)[nH]c(-c3ccc(OC)c(-c4ncccn4)c3C)[n+]2[O-])c1 [Compound 118, 4-((3-(1,1-difluoropropyl)phenyl)carbamoyl)-2-(4-methoxy-2-methyl-3-(pyrimidin-2-yl)phenyl)-5-methyl-1H-imidazole 3-oxide] | > 30 nM | Inactive
10 | CCC(F)(F)c1cccc(NC(=O)c2c(C)[nH]c(-c3ccc(OC)c(-c4c(C)cc(C)cc4C)c3)[n+]2[O-])c1 [Compound 152, 4-((3-(1,1-difluoropropyl)phenyl)carbamoyl)-2-(6-methoxy-2′,4′,6′-trimethyl-[1,1′-biphenyl]-3-yl)-5-methyl-1H-imidazole 3-oxide] | 1 to 30 nM | Inactive

Other lines, results leading:

Row | IC50 [1] | ACSS1 Biochemical IC50 (nM) [2] | SMILES
11 | 1 to 30 nM | Inactive | COc1cc(F)c(-c2[nH]c(C)c(C(=O)Nc3cccc(C(F)(F)F)c3)[n+]2[O-])nc1-c1c(C)cc(F)cc1C [Compound 209, 2-(3-fluoro-6-(4-fluoro-2,6-dimethylphenyl)-5-methoxypyridin-2-yl)-5-methyl-4-((3-(trifluoromethyl)phenyl)carbamoyl)-1H-imidazole 3-oxide]
12 | < 1 nM | Inactive | CCCCc1cc(-c2c(C)cccc2C)cc(-c2[nH]c(C)c(C(=O)Nc3cccc(C(F)(F)C4CC4)c3)[n+]2[O-])c1 [Compound 161, 2-(5-butyl-2′,6′-dimethyl-[1,1′-biphenyl]-3-yl)-4-((3-(cyclopropyldifluoromethyl)phenyl)carbamoyl)-5-methyl-1H-imidazole 3-oxide]
13 | > 30 nM | Inactive | COc1ccc(-c2[nH]c(C)c(C(=O)Nc3ccc4[nH]cnc4c3)[n+]2[O-])cc1-c1c(C)cccc1C [Compound 173, 4-((1H-benzo[d]imidazol-5-yl)carbamoyl)-2-(6-methoxy-2′,6′-dimethyl-[1,1′-biphenyl]-3-yl)-5-methyl-1H-imidazole 3-oxide]
14 | 1 to 30 nM | Inactive | COc1ccc(-c2[nH]c(C)c(C(=O)Nc3cccc(CC(F)(F)F)c3)[n+]2[O-])cc1-c1c(C)cccc1C [Compound 194, 2-(6-methoxy-2′,6′-dimethyl-[1,1′-biphenyl]-3-yl)-5-methyl-4-((3-(2,2,2-trifluoroethyl)phenyl)carbamoyl)-1H-imidazole 3-oxide]
15 | < 1 nM | Inactive | CCC(F)(F)c1cccc(NC(=O)c2c(C)[nH]c(-c3ccc(OC)c(N4CCN(C)CC4)c3)[n+]2[O-])c1 [Compound 165, 4-((3-(1,1-difluoropropyl)phenyl)carbamoyl)-2-(4-methoxy-3-(4-methylpiperazin-1-yl)phenyl)-5-methyl-1H-imidazole 3-oxide]
16 | > 30 nM | Inactive | CCC(F)(F)c1cccc(NC(=O)c2c(C)[nH]c(-c3ccc(OC)c(C4CCN(C)CC4)c3)[n+]2[O-])c1 [Compound 166, N-[3-(1,1-difluoropropyl)phenyl]-2-[4-methoxy-3-(1-methyl-4-piperidyl)phenyl]-5-methyl-3-oxido-1H-imidazol-3-ium-4-carboxamide]
17 | > 30 nM | Inactive | COc1ccc(-c2[nH]c(C)c(C(=O)Nc3cccc(C(=O)N4CCN(C)CC4)c3)[n+]2[O-])cc1-c1c(C)cccc1C [Compound 163, 2-[3-(2,6-dimethylphenyl)-4-methoxy-phenyl]-5-methyl-N-[3-(4-methylpiperazine-1-carbonyl)phenyl]-3-oxido-1H-imidazol-3-ium-4-carboxamide]
18 | 1 to 30 nM | Inactive | COc1cc(F)c(-c2[nH]c(C)c(C(=O)Nc3cccc(C(F)(F)F)c3)[n+]2[O-])nc1-c1c(F)cccc1F [Compound 208, 2-(6-(2,6-difluorophenyl)-3-fluoro-5-methoxypyridin-2-yl)-5-methyl-4-((3-(trifluoromethyl)phenyl)carbamoyl)-1H-imidazole 3-oxide]
